Each structure is given as a SMILES string. pIC50: −log10 of the molar value.

The first data set deals with PDE4. Briefly: PDE4 enzyme inhibition (IC50), enzyme from cytosolic preparation of U937 cell line. The note with it: inhibitory activity on PDE4; substrate cAMP 0.25 μM; reaction stopped after 10 minutes. It is filed as biochemical, human. The procedure: The capacity of the compounds of formula (I) of the invention to inhibit cyclic nucleotide phosphodiesterases is evaluated by measuring their IC50 (concentration required to inhibit 50% of the enzymatic activity).
The type 4 phosphodiesterases are obtained from a cytosolic preparation extracted from a cell line U937 of human origin according to the method adapted from T. J. Torphy et al., J. Pharm. Exp. Ther. (1992), 263: 1195-1205.
The measurement of the enzymatic activity of the various types of PDE, and in particular the PDE4, is carried out according to a method adapted from W. J. Thompson et al., Advances in Cyclic Nucleotide Research, (1979) Vol. 10: 69-92, ed. G. Brooker et al. Raven Press, NY.
The substrate used is cGMP for PDE1 and PDE5 and cAMP for PDE 3 and PDE 4. The substrate concentration was 0.2 μM for PDE 1, PDE 3 and PDE 5, 0.25 μM for PDE 4.
The enzymatic reaction was stopped after 1 hour for PDE 1, PDE 3 and PDE 5 and 10 minutes for PDE 4.
The following table illustrates the inhibitory activity on PDE4 of some of the compounds of formula (I): […]
In turn, `CNc1ccc2c(c1)c(=O)n(Cc1ccc(C#N)cc1)c1nnc(C3CCCC3)n21` [Example 9, 4-(4-cyanobenzyl)-1-cyclopentyl-7-(N-methylamino)-4H-[1,2,4]triazolo[4,3-a]quinazolin-5-one] had a pIC50 of 8.70. Still for that read-out and setting: under `CC(=O)Nc1ccc2c(c1)c(=O)n(Cc1ccccc1)c1nnc(C)n21` [Example 4, 7-acetamido-4-benzyl-1-methyl-4H-[1,2,4]triazolo[4,3-a]quinazolin-5-one] stands 4.51; under `Cc1nnc2n(Cc3ccccc3)c(=O)c3cc(Br)ccc3n12` [Example 11, 4-benzyl-7-bromo-1-methyl-4H-[1,2,4]triazolo[4,3-a]quinazolin-5-one], 6.00. The same measure, in the same setting: under `O=c1c2cc(Br)ccc2n2c(C3CCCC3)nnc2n1Cc1ccccc1` [Example 10, 4-benzyl-7-bromo-1-cyclopentyl-4H-[1,2,4]triazolo[4,3-a]quinazolin-5-one] stands 7.21. With `CC(=O)N(C)c1ccc2c(c1)c(=O)n(Cc1ccccc1)c1nnc(C3CCCC3)n21` [Example 5, 4-benzyl-1-cyclopentyl-7-(N-methylacetamido)-4H-[1,2,4]triazolo[4,3-a]quinazolin-5-one], the pIC50 is 5.57. Still for that read-out and setting: under `CC(=O)Nc1ccc2c(c1)c(=O)n(Cc1ccccc1)c1nnc(C3CCCC3)n21` [Example 2, 7-acetamido-4-benzyl-1-cyclopentyl-4H-[1,2,4]triazolo[4,3-a]quinazolin-5-one] stands 5.07; under `CC(=O)N(C)c1ccc2c(c1)c(=O)n(Cc1ccc(C#N)cc1)c1nnc(C3CCCC3)n21` [Example 8, 4-(4-cyanobenzyl)-1-cyclopentyl-7-(N-methylacetamido)-4H-[1,2,4]triazolo[4,3-a]quinazolin-5-one], 5.89. On the same count and under the same terms, with `CNc1ccc2c(c1)c(=O)n(Cc1ccccc1)c1nnc(C3CCCC3)n21` [Example 7, 4-benzyl-1-cyclopentyl-7-methylamino-4H-[1,2,4]triazolo[4,3-a]quinazolin-5-one] the figure was 7.12.

System in another data set: not given
Experiment: not given
Particulars: dose of 20 mg as a single intake; cited from earlier work.
Take `COc1ccc([C@]2(C#N)CC[C@@H](C(=O)O)CC2)cc1OC1CCCC1` [Ariflo]: the undesirable effects result is “significant undesirable effects, such as nausea and vomiting”.

In general, pIC50 refers to the negative decadic logarithm of the IC50, by convention in mol/L.

The record behind these values is patent US6747035B2, “1-alkyl or 1-cycloalkyltriazolo[4,3-a]quinazolin-5-ones as phosphodiesterase inhibitors” (Warner-Lambert LLC, priority 2001, dated 2004).
